Some test systems named below: IGROV1 ovarian; A549 NSCLC; T-47D breast; SK-MEL-2 melanoma; UACC-62 melanoma; MOLT-4 leukemia; M14 melanoma; ACHN renal; HOP-92 NSCLC; HT29 colon.
Assay in all cases: NCI anticancer screen, dose series, 48 h

This is an account of results in PubChem BioAssay (NCI).

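Exposure lasted 48 hours, with cells grown in 96-well plates and compounds tested at five concentrations. TGI: concentration producing complete growth inhibition.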

As for `COc1cc2c(cc1OC)-c1[nH]c3ccc([N+](=O)[O-])cc3c1CC(=O)N2`, the TGI is more than 100 µM in the test with IGROV1 ovarian; more than 100 µM with A549 NSCLC; more than 60.5 µM in the test with T-47D breast; more than 52.3 µM in the test with SK-MEL-2 melanoma; more than 100 µM in the test on UACC-62 melanoma; more than 76.4 µM in the test with MOLT-4 leukemia. For the same compound, the TGI in the test with M14 melanoma was more than 100 µM; in the test with ACHN renal it was 6.2 µM; with HOP-92 NSCLC it was more than 100 µM; with HT29 colon, more than 100 µM.

As for `CCOC(=O)[C@@]12NN=N[C@@H]1[C@H]1CO[C@H](c3ccccc3)N1C2=O`, the TGI in the test on IGROV1 ovarian is 20.3 µM; in the test on A549 NSCLC, more than 100 µM; in the test on T-47D breast, 36 µM; in the test with SK-MEL-2 melanoma, 21.7 µM; in the test with UACC-62 melanoma it was 21.2 µM; in the test on MOLT-4 leukemia, more than 100 µM. The TGI in the test on M14 melanoma turned out to be 33 µM; in the test on ACHN renal, 28.2 µM; with HOP-92 NSCLC it was 8.58 µM; in the test with HT29 colon, 32.4 µM.

`O=c1[nH]c(-c2ccc(Cl)cc2)cc2ccsc12`: the TGI with IGROV1 ovarian is more than 100 µM; in the test on A549 NSCLC it was more than 100 µM; in the test with T-47D breast, 59.9 µM; in the test on SK-MEL-2 melanoma, more than 100 µM; with UACC-62 melanoma, more than 100 µM; in the test on MOLT-4 leukemia, more than 100 µM. The TGI is more than 100 µM with M14 melanoma, more than 100 µM in the test on ACHN renal, 77.4 µM in the test with HOP-92 NSCLC and more than 100 µM in the test with HT29 colon.

For `COc1cc2nc3n(c(=O)c2cc1OC)CCCCC3`, the TGI in the test on IGROV1 ovarian, in the test on A549 NSCLC, with T-47D breast, in the test on SK-MEL-2 melanoma, in the test on UACC-62 melanoma and in the test with MOLT-4 leukemia was more than 100 µM in each case. Besides, the TGI in the test on M14 melanoma, with ACHN renal, in the test on HOP-92 NSCLC and in the test on HT29 colon was more than 100 µM each time.

Turning to `O=C1c2c(F)c(F)c(F)c(F)c2SC2=Nc3cccc4cccc(c34)N12`, the TGI came out at 24.1 µM in the test on IGROV1 ovarian; 39.8 µM in the test on A549 NSCLC; 4.9 µM in the test with T-47D breast; 7.89 µM in the test with SK-MEL-2 melanoma; 11 µM with UACC-62 melanoma; 6.01 µM with MOLT-4 leukemia. Further, the TGI in the test with M14 melanoma came out at 13.1 µM; in the test on ACHN renal it was 16.8 µM; with HOP-92 NSCLC, 6.7 µM; with HT29 colon it was 21.4 µM.

Consider `CN(C)C=Nc1c2c(nc3ccccc13)CCCC2`, for which the TGI in the test with IGROV1 ovarian, with A549 NSCLC, with T-47D breast, in the test with SK-MEL-2 melanoma, in the test on UACC-62 melanoma and with MOLT-4 leukemia was more than 100 µM in each case. Also, the TGI in the test with M14 melanoma, with ACHN renal, with HOP-92 NSCLC and in the test on HT29 colon was more than 100 µM throughout.

Consider `O=C1[C@H](O)[C@@H]2CCC[C@@]23CCCN13`, for which the TGI in the test on IGROV1 ovarian, with A549 NSCLC, with T-47D breast, in the test with UACC-62 melanoma, with MOLT-4 leukemia and with M14 melanoma was more than 100 µM each time. Further, the TGI in the test on ACHN renal, in the test on HOP-92 NSCLC and in the test with HT29 colon was more than 100 µM throughout.

Take `COC(=O)[C@@H](NC(=O)c1ccc(CNC(=O)/C(C)=C/c2ccccc2)cc1)C(C)C`: the TGI in the test on IGROV1 ovarian, in the test on A549 NSCLC, with T-47D breast, in the test on SK-MEL-2 melanoma, in the test with UACC-62 melanoma and in the test on MOLT-4 leukemia was more than 100 µM each time. Besides, the TGI with M14 melanoma, with ACHN renal, in the test on HOP-92 NSCLC and in the test on HT29 colon was more than 100 µM each time.

In the case of `Clc1ccc(Nc2nnc(CNc3ccc(-c4nnc(Nc5ccc(Cl)cc5)o4)cc3)o2)cc1`, the TGI in the test on IGROV1 ovarian was determined as 30.4 µM; in the test on A549 NSCLC, 30.2 µM; in the test on T-47D breast it was 56.6 µM; in the test on SK-MEL-2 melanoma, 45.8 µM; in the test with UACC-62 melanoma, 27.8 µM; with MOLT-4 leukemia it was 49.3 µM. Moreover, the TGI with M14 melanoma stood at 43.2 µM; in the test on ACHN renal, 43.6 µM; with HOP-92 NSCLC, 48.7 µM; in the test on HT29 colon, 33.1 µM.

With `COC(=O)CN(CC1O[C@@H]2OC(C)(C)O[C@@H]2C1NC(C)=O)C(=O)OCc1ccccc1` (stereo not given in full), the TGI in the test with IGROV1 ovarian, in the test on A549 NSCLC, with T-47D breast, with SK-MEL-2 melanoma, in the test on UACC-62 melanoma and in the test on MOLT-4 leukemia was more than 100 µM each time. The TGI with M14 melanoma, in the test with ACHN renal, in the test with HOP-92 NSCLC and with HT29 colon was more than 100 µM each time.

As for `CCSc1[nH]c(NC(=NC(C)C)NC(=O)c2ccccc2)c(C(N)=O)c1C(N)=O`, the TGI in the test on IGROV1 ovarian, in the test with A549 NSCLC, in the test on T-47D breast, in the test with UACC-62 melanoma, in the test on MOLT-4 leukemia and with M14 melanoma was more than 10 µM throughout. Also, the TGI in the test with HOP-92 NSCLC and with HT29 colon was more than 10 µM throughout.

As to `O=C(NCCCc1cn[nH]c(=O)n1)c1cccc2nc3ccccc3nc12`, the TGI in the test on IGROV1 ovarian, with A549 NSCLC, in the test with T-47D breast, in the test on SK-MEL-2 melanoma, with UACC-62 melanoma and in the test on MOLT-4 leukemia was more than 100 µM each time. Further, the TGI in the test on M14 melanoma, with ACHN renal, in the test on HOP-92 NSCLC and in the test with HT29 colon was more than 100 µM each time.

On to `Cc1cc2c(cc1-c1cc3c(cc1C)C(C(C)C)=C(O)C(=O)/C3=C\Nc1ccccn1)/C(=C/Nc1ccccn1)C(=O)C(O)=C2C(C)C`, for which the TGI was more than 100 µM with IGROV1 ovarian; more than 100 µM with A549 NSCLC; more than 100 µM in the test with T-47D breast; 86.5 µM in the test on SK-MEL-2 melanoma; more than 100 µM with UACC-62 melanoma; more than 100 µM in the test on MOLT-4 leukemia. For the same compound, the TGI in the test on M14 melanoma, with ACHN renal and with HOP-92 NSCLC was more than 100 µM in each case.

`Cc1cc2nc(CC(C(F)(F)F)C(F)(F)F)oc2cc1C`: the TGI with IGROV1 ovarian was 10.1 µM; in the test with A549 NSCLC it was 30.1 µM; in the test with T-47D breast it was 10.7 µM; with SK-MEL-2 melanoma, 9.85 µM; in the test on UACC-62 melanoma, 3.64 µM; in the test with M14 melanoma it was 4.72 µM. The TGI came out at 20.7 µM in the test with ACHN renal, 28.9 µM in the test on HOP-92 NSCLC and 7.91 µM with HT29 colon.
